Experiment [1] concerns the target isolated recombinant JAK1 kinase domain (Homo sapiens (Human), UniProt P23458). Description: JAK1 enzyme assay (Caliper LabChip, Ki). It is filed as biochemical. The settings on record: isolated recombinant JAK1 kinase domain, 1.5 nM enzyme, ATP 25 μM.
Experiment [2] deals with isolated recombinant JAK2 kinase domain (Homo sapiens (Human), UniProt O60674). Briefly: JAK2 enzyme assay (Caliper LabChip, Ki). To be noted: isolated recombinant JAK2 kinase domain, 0.2 nM enzyme, ATP 25 μM. It is filed as biochemical.
Chain of isolated recombinant JAK2 kinase domain (O60674 849-1124): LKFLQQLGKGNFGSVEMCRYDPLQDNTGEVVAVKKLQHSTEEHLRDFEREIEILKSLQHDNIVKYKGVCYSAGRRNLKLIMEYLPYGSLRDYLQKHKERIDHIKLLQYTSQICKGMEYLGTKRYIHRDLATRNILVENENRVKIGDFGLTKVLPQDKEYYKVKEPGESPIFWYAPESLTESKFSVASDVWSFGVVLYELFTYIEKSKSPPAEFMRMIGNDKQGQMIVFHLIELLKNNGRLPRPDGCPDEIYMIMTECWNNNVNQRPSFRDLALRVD

The results in this text go back to patent US10189836B2, “Therapeutic compounds, compositions and methods of use thereof” (Genentech, Inc., priority 2015, dated 2019).

Molecules are shown by their SMILES.

Chain of isolated recombinant JAK1 kinase domain (P23458 875-1153): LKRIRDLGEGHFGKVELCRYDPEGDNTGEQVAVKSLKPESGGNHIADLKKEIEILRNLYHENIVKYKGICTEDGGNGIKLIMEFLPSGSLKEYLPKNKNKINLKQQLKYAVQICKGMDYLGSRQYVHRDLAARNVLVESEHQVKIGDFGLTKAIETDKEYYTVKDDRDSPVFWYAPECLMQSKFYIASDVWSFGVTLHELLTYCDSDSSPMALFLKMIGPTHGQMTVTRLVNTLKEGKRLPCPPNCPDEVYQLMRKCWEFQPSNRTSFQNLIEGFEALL

In the case of `CN1CCN(C(=O)Cn2cc(Nc3nc4c(N5C[C@H]6CC[C@@H](C5)[C@H]6OCc5ccc(F)nc5)cccn4n3)cn2)CC1` [Example 162, 1-(4-methylpiperazin-1-yl)-2-[4-[[8-[rac-(1S,5R)-8-[(6-fluoro-3-pyridyl)methoxy]-3-azabicyclo[3.2.1]octan-3-yl]-[1,2,4]triazolo[1,5-a]pyridin-2-yl]amino]pyrazol-1-yl]ethanone], the Ki in experiment [1] and in experiment [2] was 0.6 nM throughout.
As to `CN1CCN(C(=O)Cn2cc(Nc3nc4c(N5C[C@H]6CC[C@@H](C5)[C@H]6N(C)C(=O)CC(F)(F)F)cccn4n3)cn2)CC1` [Example 164, 3,3,3-trifluoro-N-methyl-N-[rac-(1S,5R)-3-[2-[[1-[2-(4-methylpiperazin-1-yl)-2-oxo-ethyl]pyrazol-4-yl]amino]-[1,2,4]triazolo[1,5-a]pyridin-8-yl]-3-azabicyclo[3.2.1]octan-8-yl]propanamide], the Ki – broadly, a dissociation constant, usually derived from enzyme kinetics or from competition with a known ligand – was 0.7 nM in experiment [1] and 1 nM in experiment [2].
Take `CN1CCN(C(=O)Cn2cc(Nc3nc4c(N5CC6CCC(C5)N6S(=O)(=O)Cc5cccc(Cl)c5)cccn4n3)cn2)CC1` [Example 165, 2-[4-[[8-[8-[(3-chlorophenyl)methylsulfonyl]-3,8-diazabicyclo[3.2.1]octan-3-yl]-[1,2,4]triazolo[1,5-a]pyridin-2-yl]amino]pyrazol-1-yl]-1-(4-methylpiperazin-1-yl)ethanone]: the values for the Ki in experiment [1] and in experiment [2] were 0.4 nM and 0.8 nM, respectively.
For `CN1CCN(C(=O)Cn2cc(Nc3nc4c(N5CC6CCC(C5)N6S(=O)(=O)Cc5ccc(Cl)cc5)cccn4n3)cn2)CC1` [Example 166, 2-[4-[[8-[8-[(4-chlorophenyl)methylsulfonyl]-3,8-diazabicyclo[3.2.1]octan-3-yl]-[1,2,4]triazolo[1,5-a]pyridin-2-yl]amino]pyrazol-1-yl]-1-(4-methylpiperazin-1-yl)ethanone], the Ki was determined as 0.7 nM in experiment [1] and 0.9 nM in experiment [2].
The like results for `CN1CCN(C(=O)Cn2cc(Nc3nc4c(N5CC6CCC(C5)N6S(=O)(=O)Cc5ccccc5C(F)(F)F)cccn4n3)cn2)CC1` [Example 167, 1-(4-methylpiperazin-1-yl)-2-[4-[[8-[8-([2-(trifluoromethyl)phenyl]methylsulfonyl]-3,8-diazabicyclo[3.2.1]octan-3-yl]-[1,2,4]triazolo[1,5-a]pyridin-2-yl]amino]pyrazol-1-yl]ethanone] were, in that order, 0.6 nM and 1 nM.
Take `CN1CCN(C(=O)Cn2cc(Nc3nc4c(N5CC6CCC(C5)N6S(=O)(=O)Cc5ccc(C#N)cc5)cccn4n3)cn2)CC1` [Example 168, 4-[[3-[2-[[1-[2-(4-methylpiperazin-1-yl)-2-oxo-ethyl]pyrazo1-4-yl]amino]-[1,2,4]triazolo[1,5-a]pyridin-8-yl]-3,8-diazabicyclo[3.2.1]octan-8-yl]sulfonylmethyl]-benzonitrile]: the Ki in experiment [1] turned out to be 2.7 nM; in experiment [2], 4.4 nM.
The matching figures for `CSc1cccc(S(=O)(=O)N2C3CCC2CN(c2cccn4nc(Nc5cnn(CC(=O)N6CCN(C)CC6)c5)nc24)C3)c1` [Example 169, 1-(4-methylpiperazin-1-yl)-2-[4-[[8-[8-(3-methylsulfanylphenyl)sulfonyl-3,8-diazabicyclo[3.2.1]octan-3-yl]-[1,2,4]triazolo[1,5-a]pyridin-2-yl]amino]pyrazol-1-yl]ethanone]: 0.6 nM and 0.6 nM.
As for `CN1CCN(C(=O)Cn2cc(Nc3nc4c(N5CC6CCC(C5)N6C(=O)N5CC(F)C5)cccn4n3)cn2)CC1` [Example 170, 2-[4-[[8-[8-(3-fluoroazetidine-1-carbonyl)-3,8-diazabicyclo[3.2.1]octan-3-yl]-[1,2,4]triazolo[1,5-a]pyridin-2-yl]amino]pyrazol-1-yl]-1-(4-methylpiperazin-1-yl)ethanone], the Ki in experiment [1] stood at 0.3 nM; in experiment [2], 0.2 nM.
The like results for `CSC1CN(C(=O)N2C3CCC2CN(c2cccn4nc(Nc5cnn(CC(=O)N6CCN(C)CC6)c5)nc24)C3)C1` [Example 171, 1-(4-methylpiperazin-1-yl)-2-[4-[[8-[8-(3-methylsulfanylazetidine-1-carbonyl)-3,8-diazabicyclo[3.2.1]octan-3-yl]-[1,2,4]triazolo[1,5-a]pyridin-2-yl]amino]pyrazol-1-yl]ethanone] were, in that order, 1.3 nM and 2.9 nM.
As to `CSC1CCN(C(=O)N2C3CCC2CN(c2cccn4nc(Nc5cnn(CC(=O)N6CCN(C)CC6)c5)nc24)C3)C1` (stereo not drawn) [Example 172, 1-(4-methylpiperazin-1-yl)-2-[4-[[8-[8-(3-methylsulfanylpyrrolidine-1-carbonyl)-3,8-diazabicyclo[3.2.1]octan-3-yl]-[1,2,4]triazolo[1,5-a]pyridin-2-yl]amino]pyrazol-1-yl]ethanone], the Ki in experiment [1] is 0.6 nM; in experiment [2], 0.9 nM.
In the case of `CN1CCN(C(=O)Cn2cc(Nc3nc4c(N5CC6CCC(C5)N6C(=O)N5CC(F)(F)C5)cccn4n3)cn2)CC1` [Example 173, 2-[4-[[8-[8-(3,3-difluoroazetidine-1-carbonyl)-3,8-diazabicyclo[3.2.1]octan-3-yl]-[1,2,4]triazolo[1,5-a]pyridin-2-yl]amino]pyrazol-1-yl]-1-(4-methylpiperazin-1-yl)ethanone], the Ki in experiment [1] and in experiment [2] was 0.5 nM each time.
For `CN1CCN(C(=O)Cn2cc(Nc3nc4c(N5CC6CCC(C5)N6S(=O)(=O)CCCC(F)(F)F)cccn4n3)cn2)CC1` [Example 174, 1-(4-methylpiperazin-1-yl)-2-[4-[[8-[8-(4,4,4-trifluorobutylsulfonyl)-3,8-diazabicyclo[3.2.1]octan-3-yl]-[1,2,4]triazolo[1,5-a]pyridin-2-yl]amino]pyrazol-1-yl]ethanone], the inhibition constant Ki in experiment [1] was 0.7 nM; in experiment [2], 1.1 nM.
As to `CN1CCN(C(=O)Cn2cc(Nc3nc4c(N5CC6CCC(C5)N6S(=O)(=O)c5cccnc5)cccn4n3)cn2)CC1` [Example 175, 1-(4-methylpiperazin-1-yl)-2-[4-[[8-[8-(3-pyridylsulfonyl)-3,8-diazabicyclo[3.2.1]octan-3-yl]-[1,2,4]triazolo[1,5-a]pyridin-2-yl]amino]pyrazol-1-yl]ethanone], the figures for the Ki in experiment [1] and in experiment [2] were 0.6 nM and 0.9 nM, respectively.
As for `CN1CCN(C(=O)Cn2cc(Nc3nc4c(N5CC6CCC(C5)N6S(=O)(=O)CCCC#N)cccn4n3)cn2)CC1` [Example 176, 4-[[3-[2-[[1-[2-(4-methylpiperazin-1-yl)-2-oxo-ethyl]pyrazol-4-yl]amino]-[1,2,4]triazolo[1,5-a]pyridin-8-yl]-3,8-diazabicyclo[3.2.1]octan-8-yl]sulfonyl]butanenitrile], the Ki in experiment [1] worked out at 0.7 nM; in experiment [2] it was 3.4 nM.
As to `CN1CCN(C(=O)Cn2cc(Nc3nc4c(N5CC6CCC(C5)N6S(=O)(=O)C5CC5)cccn4n3)cn2)CC1` [Example 177, 2-[4-[[8-(8-cyclopropylsulfonyl-3,8-diazabicyclo[3.2.1]octan-3-yl)-[1,2,4]triazolo[1,5-a]pyridin-2-yl]amino]pyrazol-1-yl]-1-(4-methylpiperazin-1-yl)ethanone], the Ki in experiment [1] was 2.1 nM; in experiment [2], 7.5 nM.
The matching figures for `CN1CCN(C(=O)Cn2cc(Nc3nc4c(N5CC6CCC(C5)N6S(=O)(=O)C5CCCCC5)cccn4n3)cn2)CC1` [Example 178, 2-[4-[[8-(8-cyclohexylsulfonyl-3,8-diazabicyclo[3.2.1]octan-3-yl)-[1,2,4]triazolo[1,5-a]pyridin-2-yl]amino]pyrazol-1-yl]-1-(4-methylpiperazin-1-yl)ethanone; formic acid]: 1.8 nM and 1.5 nM.
The like results for `O=C(Cn1cc(Nc2nc3c(N4CC5CCC(C4)N5C(=O)CCC(F)(F)F)cccn3n2)cn1)N1CCC(N2CCn3nccc3C2)CC1` [Example 179, 1-[3-[2-[[1-[2-[4-(6,7-dihydro-4H-pyrazolo[1,5-a]pyrazin-5-yl)-1-piperidyl]-2-oxo-ethyl]pyrazol-4-yl]amino]-[1,2,4]triazolo[1,5-a]pyridin-8-yl]-3,8-diazabicyclo[3.2.1]octan-8-yl]-4,4,4-trifluoro-butan-1-one; formic acid] were, in that order, 1.6 nM and 1.3 nM.
The like results for `CSC1CCN(C(=O)N2C3CCC2CN(c2cccn4nc(Nc5cnn(CC(=O)N6CCN(C)CC6)c5)nc24)C3)CC1` [Example 180, 1-(4-methylpiperazin-1-yl)-2-[4-[[8-[8-(4-methylsulfanylpiperidine-1-carbonyl)-3,8-diazabicyclo[3.2.1]octan-3-yl]-[1,2,4]triazolo[1,5-a]pyridin-2-yl]amino]pyrazol-1-yl]ethanone] were, in that order, 1.3 nM and 2.6 nM.
With `CN1CCN(C(=O)Cn2cc(Nc3nc4c(N5CC6CCC(C5)N6C(=O)N5CCC(C(F)(F)F)C5)cccn4n3)cn2)CC1` (stereo not drawn) [Example 181, 1-(4-methylpiperazin-1-yl)-2-[4-[[8-[8-(3-(trifluoromethyl)pyrrolidine-1-carbonyl]-3,8-diazabicyclo[3.2.1]octan-3-yl]-[1,2,4]triazolo[1,5-a]pyridin-2-yl]amino]pyrazol-1-yl]ethanone], the inhibitory constant (Ki) in experiment [1] came to 0.8 nM; in experiment [2] it was 1.3 nM.
Regarding `CN1CCN(C(=O)Cn2cc(Nc3nc4c(N5CC6CCC(C5)N6C(=O)N5CCC(C#N)CC5)cccn4n3)cn2)CC1` [Example 182, 1-[3-[2-[[1-[2-(4-methylpiperazin-1-yl)-2-oxo-ethyl]pyrazol-4-yl]amino]-[1,2,4]triazolo[1,5-a]pyridin-8-yl]-3,8-diazabicyclo[3.2.1]octane-8-carbonyl]piperidine-4-carbonitrile], the values for the Ki in experiment [1] and in experiment [2] were 0.6 nM and 0.9 nM, respectively.
The matching figures for `CN1CCN(C(=O)Cn2cc(Nc3nc4c(N5CC6CCC(C5)N6S(=O)(=O)Cc5ccc(C(F)(F)F)cc5)cccn4n3)cn2)CC1` [Example 184, 1-(4-methylpiperazin-1-yl)-2-[4-[[8-[8-([4-(trifluoromethyl)phenyl]methylsulfonyl]-3,8-diazabicyclo[3.2.1]octan-3-yl]-[1,2,4]triazolo[1,5-a]pyridin-2-yl]amino]pyrazol-1-yl]ethanone]: 1 nM and 2.3 nM.
